Measurements: article PMC10762177, “Novel betulin derivatives as multidrug reversal agents targeting P-glycoprotein” (Scientific Reports, 2024)
Where “and” joins values, the source holds several entries; their conditions need not be identical. Identical values can stand only once. Counter-ions that a name gives are not always drawn. Like-named read-outs stand apart in the source and are kept apart here.

Key:
[1] = system: K562/Dox cells; assay: MTT colorimetric assay, cytotoxicity on resistant K562/Dox; format: cell-based; conditions: for IC50: Homo sapiens, K562, 48 h, read-out: IC50 K562/Dox
Protocol: This colorimetric technique is based on the ability of viable cells to capture MTT and reduce it through the mitochondrial enzyme succinic dehydrogenase to its insoluble form, formazan crystals. The target compounds dissolved in DMSO (0.5% v/v as final concentration which was non-toxic to cells) at a maximum concentration of 50 µM were exposed to 5 × 10^4 cells distributed in a 96-well plate and incubated for 48 h. […] After this time, the plate was centrifuged at 2000 rpm for 10 min, and 100 µL of DMSO was added to dissolve the formazan crystals formed. Absorbance (Abs) was read at a wavelength of 595 nm in an iMark microplate reader (Bio-Rad, USA). The percentages of cytotoxicity were determined as compared to DMSO treated control cells, which were considered 100% viable as showing the same level of growth as the untreated cells.

[2] = system: K562 cells; assay: MTT colorimetric assay, cytotoxicity on sensitive K562; format: cell-based; conditions: for IC50: Homo sapiens, MTT, 48 h
Protocol: This colorimetric technique is based on the ability of viable cells to capture MTT and reduce it through the mitochondrial enzyme succinic dehydrogenase to its insoluble form, formazan crystals. […] After this time, the plate was centrifuged at 2000 rpm for 10 min, and 100 µL of DMSO was added to dissolve the formazan crystals formed. Absorbance (Abs) was read at a wavelength of 595 nm in an iMark microplate reader (Bio-Rad, USA).

[3] = target: P-gp (Homo sapiens, UniProt P08183); assay: Rhodamine 123 intracellular accumulation assay in K562/Dox (flow cytometry); conditions: for Rho123 accumulation / anti-P-gp activity / MEC (minimum effective concentration): K562/Dox; for Rho123 accumulation / anti-P-gp activity: highest concentrations tested (50 or 6.25 µM); for FAR (fluorescence activity ratio): Rho123, K562/Dox; for MEC (minimum effective concentration): Rho123 accumulation
Sequence of P-gp (P08183 whole entry): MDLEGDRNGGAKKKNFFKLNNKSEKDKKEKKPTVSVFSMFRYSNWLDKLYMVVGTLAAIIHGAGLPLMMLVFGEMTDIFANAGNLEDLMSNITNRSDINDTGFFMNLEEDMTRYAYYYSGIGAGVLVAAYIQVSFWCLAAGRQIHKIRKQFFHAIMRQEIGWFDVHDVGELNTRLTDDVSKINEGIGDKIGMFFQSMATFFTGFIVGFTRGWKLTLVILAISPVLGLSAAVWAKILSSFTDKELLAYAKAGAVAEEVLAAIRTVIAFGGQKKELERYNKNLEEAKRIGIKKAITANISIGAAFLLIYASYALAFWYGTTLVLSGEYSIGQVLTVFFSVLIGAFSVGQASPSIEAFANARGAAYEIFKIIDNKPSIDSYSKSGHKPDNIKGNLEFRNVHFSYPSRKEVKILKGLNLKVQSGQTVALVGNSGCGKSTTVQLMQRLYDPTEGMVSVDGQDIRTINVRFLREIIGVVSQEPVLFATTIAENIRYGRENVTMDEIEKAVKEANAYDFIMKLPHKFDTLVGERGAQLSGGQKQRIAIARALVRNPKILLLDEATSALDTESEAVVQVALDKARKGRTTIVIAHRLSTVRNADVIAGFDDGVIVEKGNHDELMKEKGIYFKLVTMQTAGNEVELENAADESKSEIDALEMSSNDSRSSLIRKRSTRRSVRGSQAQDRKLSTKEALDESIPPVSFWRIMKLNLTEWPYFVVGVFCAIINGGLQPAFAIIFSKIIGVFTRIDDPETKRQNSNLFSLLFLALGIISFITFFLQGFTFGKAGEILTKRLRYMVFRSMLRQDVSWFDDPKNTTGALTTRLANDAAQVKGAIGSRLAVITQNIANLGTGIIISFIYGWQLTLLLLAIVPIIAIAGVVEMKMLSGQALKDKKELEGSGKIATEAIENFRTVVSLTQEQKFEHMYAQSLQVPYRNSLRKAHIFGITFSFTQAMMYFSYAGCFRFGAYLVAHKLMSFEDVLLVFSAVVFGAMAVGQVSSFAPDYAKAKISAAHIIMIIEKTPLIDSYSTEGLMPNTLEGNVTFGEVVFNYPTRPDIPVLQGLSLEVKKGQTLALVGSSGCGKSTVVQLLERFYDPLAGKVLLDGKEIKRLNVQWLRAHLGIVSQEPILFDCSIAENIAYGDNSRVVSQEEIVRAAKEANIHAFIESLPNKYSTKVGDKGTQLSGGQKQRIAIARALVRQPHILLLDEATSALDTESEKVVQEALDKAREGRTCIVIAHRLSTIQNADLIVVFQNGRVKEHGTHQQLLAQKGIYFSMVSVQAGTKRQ

Compound	IC50 ([1]; MTT, 48 h, K562/Dox) [µM]	IC50 ([2]; K562, 48 h, K562) [µM]	Rho123 accumulation / anti-P-gp activity [3]	FAR (fluorescence activity ratio) ([3]; 50 µM)	MEC (minimum effective concentration) [3]	FAR (fluorescence activity ratio) ([3]; 25 µM)	other results
C=C(C)[C@@H]1CC[C@]2(COC(=O)c3ccc(OC)cc3)CC[C@]3(C)[C@H](CC[C@@H]4[C@@]5(C)CC[C@H](O)C(C)(C)[C@@H]5CC[C@]43C)[C@@H]12 [Compound 3a]	> 50	> 50	did not induce statistically significant Rho123 accumulation	0.88 ± 0.02	> 50 µM		
C=C(C)[C@@H]1CC[C@]2(COC(=O)c3cc(OC)c(OC)c(OC)c3)CC[C@]3(C)[C@H](CC[C@@H]4[C@@]5(C)CC[C@H](O)C(C)(C)[C@@H]5CC[C@]43C)[C@@H]12 [Compound 3b]	> 50	> 50		1.06 ± 0.003	50 µM	0.94 ± 0.03	
C=C(C)[C@@H]1CC[C@]2(COC(=O)/C=C/c3ccc(OC)cc3OC)CC[C@]3(C)[C@H](CC[C@@H]4[C@@]5(C)CC[C@H](O)C(C)(C)[C@@H]5CC[C@]43C)[C@@H]12 [Compound 3c]	> 50	> 50	did not induce statistically significant Rho123 accumulation	0.74 ± 0.05	> 50 µM		
C=C(C)[C@@H]1CC[C@]2(COC(=O)/C=C/c3cc(OC)c(OC)c(OC)c3)CC[C@]3(C)[C@H](CC[C@@H]4[C@@]5(C)CC[C@H](O)C(C)(C)[C@@H]5CC[C@]43C)[C@@H]12 [Compound 3d]	> 50	> 50	did not induce statistically significant Rho123 accumulation	1.00 ± 0.06	> 50 µM		
C=C(C)[C@@H]1CC[C@]2(COC(=O)/C=C/c3cc(OC)c(OC)cc3OC)CC[C@]3(C)[C@H](CC[C@@H]4[C@@]5(C)CC[C@H](O)C(C)(C)[C@@H]5CC[C@]43C)[C@@H]12 [Compound 3e]	> 50	> 50	did not induce statistically significant Rho123 accumulation	0.78 ± 0.01	> 50 µM		
C=C(C)[C@@H]1CC[C@]2(C(=O)NCc3cc(OC)c(OC)c(OC)c3)CC[C@]3(C)[C@H](CC[C@@H]4[C@@]5(C)CC[C@H](O)C(C)(C)[C@@H]5CC[C@]43C)[C@@H]12 [Compound 4]	34.4 ± 2.59	19.7 ± 0.59			25 µM and 25.0 µM		toxicity ([1]; 50 μM, K562/Dox, MTT): more than 55%; toxicity ([2]; 50 μM, K562, MTT): more than 55%; FAR (fluorescence activity ratio) ([3]; 12.50 µM): 1.04 ± 0.01; fold less active against P-gp than carbamate 6d ([3]; ratio of MEC values, Rho123): 32
C=C(C)[C@@H]1CC[C@]2(COC(=O)Nc3cc(OC)c(OC)c(OC)c3)CC[C@]3(C)[C@H](CC[C@@H]4[C@@]5(C)CC[C@H](O)C(C)(C)[C@@H]5CC[C@]43C)[C@@H]12 [Compound 6a]	> 50	> 50		1.62 ± 0.10	1.56 µM	1.33 ± 0.11	FAR (fluorescence activity ratio) ([3]; 0.78 µM): 0.98 ± 0.02; FAR (fluorescence activity ratio) ([3]; 1.56 µM): 1.17 ± 0.02; FAR (fluorescence activity ratio) ([3]; 3.12 µM): 1.12 ± 0.005; FAR (fluorescence activity ratio) ([3]; 6.25 µM): 1.12 ± 0.02; FAR (fluorescence activity ratio) ([3]; 12.50 µM): 1.20 ± 0.08
C=C(C)[C@@H]1CC[C@]2(COC(=O)NCc3ccc(OC)cc3)CC[C@]3(C)[C@H](CC[C@@H]4[C@@]5(C)CC[C@H](O)C(C)(C)[C@@H]5CC[C@]43C)[C@@H]12 [Compound 6b]	> 50	> 50		1.60 ± 0.07	50 µM	0.90 ± 0.11	
C=C(C)[C@@H]1CC[C@]2(COC(=O)NCc3ccc(OC)c(OC)c3)CC[C@]3(C)[C@H](CC[C@@H]4[C@@]5(C)CC[C@H](O)C(C)(C)[C@@H]5CC[C@]43C)[C@@H]12 [Compound 6c]	> 50	> 50		1.97 ± 0.15	3.12 µM	1.65 ± 0.11	FAR (fluorescence activity ratio) ([3]; 1.56 µM): 1.00 ± 0.02; FAR (fluorescence activity ratio) ([3]; 3.12 µM): 1.13 ± 0.03; FAR (fluorescence activity ratio) ([3]; 6.25 µM): 1.23 ± 0.01; FAR (fluorescence activity ratio) ([3]; 12.50 µM): 1.40 ± 0.06
C=C(C)[C@@H]1CC[C@]2(COC(=O)NCc3cc(OC)c(OC)c(OC)c3)CC[C@]3(C)[C@H](CC[C@@H]4[C@@]5(C)CC[C@H](O)C(C)(C)[C@@H]5CC[C@]43C)[C@@H]12 [Compound 6d]	> 50	> 50		2.80 ± 0.32	0.78 µM	2.48 ± 0.29	FAR (fluorescence activity ratio) ([3]; 0.78 µM): 1.16 ± 0.03; FAR (fluorescence activity ratio) ([3]; 1.56 µM): 1.27 ± 0.08; FAR (fluorescence activity ratio) ([3]; 3.12 µM): 1.64 ± 0.16; FAR (fluorescence activity ratio) ([3]; 6.25 µM): 1.88 ± 0.17
C=C(C)[C@@H]1CC[C@]2(COC(=O)NCCc3ccc(OC)cc3)CC[C@]3(C)[C@H](CC[C@@H]4[C@@]5(C)CC[C@H](O)C(C)(C)[C@@H]5CC[C@]43C)[C@@H]12 [Compound 6e]	> 50	> 50		1.53 ± 0.09	50 µM and 50.0 µM	1.04 ± 0.11	
COc1cccc2c1C(=O)c1c(O)c3c(c(O)c1C2=O)C[C@@](O)(C(=O)CO)C[C@@H]3O[C@H]1C[C@H](N)[C@H](O)[C@H](C)O1 [Doxorubicin, Doxorubicin hydrochloride, reference compound]	84.2 ± 7.08	2.61 ± 0.7					fold resistance of K562/Dox versus K562 ([1]; ratio of IC50 values, MTT): 32.3
COc1ccc(CCN(C)CCCC(C#N)(c2ccc(OC)c(OC)c2)C(C)C)cc1OC (centres unmarked) [Verapamil, Verapamil hydrochloride, reference compound]							inhibition on proliferation / toxicity ([1]; 50 μM (highest concentration assayed), K562/Dox): not toxic; IC50 [1]: > 50 µM; inhibition on proliferation / toxicity ([2]; 50 μM (highest concentration assayed), K562): not toxic; IC50 ([2]; K562): > 50 µM
